Results on one compound are retold here after US20170175161A1, “RAPID DETERMINATION OF BACTERIAL SUSCEPTIBILITY TO AN […] THE POINT OF CARE” (Point of Care Diagnostics, LLC, priority 2014, published 2017).

SMILES strings stand for the structures.

This assay has as its system bacterial infection within the sample (sample 101, e.g. urine). The assay is described as follows: assay 200: antibiotic susceptibility of a bacterial infection by ATP bioluminescence. It counts as cell-based. As for the experimental part:
To perform assay 200 to determine antibiotic susceptibility of a bacterial infection within the sample, a second test sample 204 and third test sample 205 may be obtained from sample 101 by applying 50 to 400 μL of first reagent 202 and 50 to 300 μL of culture medium 203 to 1 to 20 μL of sample 101 to create second test sample 204 and to 1 to 20 μL of sample 101 to create third test sample 205. First reagent 202 may include 10 to 100 mM of Tris Acetate as a buffer, 0.0001 to 0.1% of Benzethonium Chloride, and 0.5 to 4 Units/ml of Apyrase. First reagent 202 may cause non-bacterial ATP to be released and removed, in a manner similar to that as described herein. Culture medium 203 may include 50 to 300 μL of Tryptic Soy Broth. Culture medium 203 may be applied to second test sample 204 and third test sample 205 and may promote the growth and robustness of the bacterial population, in a manner similar to that described herein.
First antibiotic 206 may be applied to third test sample 205. In this example, first antibiotic 206 may include 10 to 100 μg of Amoxicillin. Second test sample 204 and the third test sample 205 may then be incubated for ˜40 minutes at 37 degrees Celsius.
After incubation, second reagent 207 (e.g., 100 to 500 μL) may be applied to second test sample 204 and third test sample 205. Second reagent 207 may include 10 to 100 mM of Tris Acetate as a buffer and 2 to 30 mg/L of Luciferase, 2 to 30 mg/L of Luciferin, and 0.1 to 0.5% of Chlorhexidine di-gluconate. […]
A Berthold Junior Luminometer may be used to measure a first bioluminescent signal (and associated strength) from third test sample 205 and a second bioluminescent signal (and associated strength) from second test sample 204 (e.g., based on released ATP, etc.). In a manner similar to that described above, the strength associated with the first bioluminescent signal and/or the strength associated with the second bioluminescent signal may be proportional to the respective quantity and/or concentration of ATP and/or quantity of bacterial cells within third test sample 205 and/or second test sample 204, respectively. […] In this example, the strength of the first bioluminescent signal was measured to be 66,823 RLU's and the strength of the second bioluminescent signal was measured to be 62,535 RLU's. Thus, the quantity of bacteria cells in third test sample 205 was ˜62,000 cfu/ml and the quantity of bacteria cells in the second test sample 204 was ˜67,000 cfu/ml.
In the event that the bacteria, within third test sample 205, are susceptible to first antibiotic 206, the quantity of bacterial cells in third test sample 205 may be less than the quantity of bacterial cells in second test sample 204. […]

Regarding `CC1(C)S[C@@H]2[C@H](NC(=O)[C@H](N)c3ccc(O)cc3)C(=O)N2[C@H]1C(=O)O` [Amoxicillin], the “susceptibility of the bacteria to the antibiotic” value (10-100 μg, ΔL compared to second threshold >30% difference) was “may not be susceptible”. Besides, the “strength of the first bioluminescent signal (third test sample 205, with antibiotic)” value (10 to 100 μg antibiotic, incubated ~40 minutes at 37 degrees Celsius, Berthold Junior Luminometer, baseline second test sample 62,535 RLU's) is given as 66,823 RLU's. Moreover, where the note is “10 to 100 μg antibiotic, ~40 minutes at 37 degrees Celsius, baseline second test sample ~67,000 cfu/ml”, the “quantity of bacteria cells in third test sample 205” value is given as ~62,000 cfu/ml. In addition, the “ΔL, difference between first and second bioluminescent signal strength” value (antibiotic-treated vs baseline sample, second threshold >30% difference) was 7.5%.
